Experimental data as given in US11542233B2, “Compounds, compositions and methods of use” (Aquinnah Pharmaceuticals, Inc., priority 2016, dated 2023).

Test system: TDP-43 aggregation in PC12 cells stably expressing GFP-tagged mutant TDP-43 (TDP-43^Q33IK::eGFP)
Experiment: In vitro efficacy assay: inhibition of TDP-43 inclusions, concentration-response, fluorescence microscopy
Format: cell-based
Details: Rattus norvegicus, PC-12, PC12 cells, 1 hour pre-treatment, 15 μM sodium arsenite for 23 hours, 10-point dose response curve
Outline: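 PC12 cells stably expressing TDP-43^Q33IK::eGFP pre-treated 1 h with compound, then stressed with 15 μM sodium arsenite for 23 h. Fluorescence microscopy gave the fraction of GFP-positive cells bearing aggregates; IC50 from concentration-response, reported in bins: A <100 nM, B 100–500 nM, C 500 nM–2 μM, D >2 μM.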

## CCN(C(=O)c1cc2ccccc2[nH]1)[C@H]1CCC[C@@H](Nc2nnc(C3CC3)s2)C1 [Compound 499, N-((1S,3R)-3-((5-cyclopropyl-1,3,4-thiadiazol-2-yl)amino)cyclohexyl)-N-ethyl-1H-indole-2-carboxamide]
  IC50: > 2 µM

## CCN(C(=O)c1cc2ccccc2[nH]1)[C@H]1CCC[C@@H](NCc2ccncc2)C1 [Compound 126]
  IC50: 0.1 to 0.5 µM

## CCN(C(=O)c1cc2c([nH]1)CCCS2(=O)=O)[C@H]1CCC[C@@H](NCc2ccccc2)C1 [Compound 512, N-((1S,3R)-3-(benzylamino)cyclohexyl)-N-ethyl-1,5,6,7-tetrahydrothiopyrano[3,2-b]pyrrole-2-carboxamide 4,4-dioxide]
  IC50: 0.1 to 0.5 µM

## CCN(C(=O)c1nc2ccccc2[nH]1)[C@H]1CCC[C@@H](NCc2ccc3ocnc3c2)C1 [Compound 489]
  IC50: < 0.1 µM

## CCN(C(=O)c1cc2cc(F)ccc2[nH]1)[C@H]1CCC[C@@H](NCc2ccccc2)C1 [Compound 547, N-((1S,3R)-3-(benzylamino)cyclohexyl)-N-ethyl-5-fluoro-1H-indole-2-carboxamide]
  IC50: < 0.1 µM

## CCN(C(=O)c1nc2c(OC)cccc2[nH]1)[C@H]1CCC[C@@H](NCc2ccccc2)C1 [Compound 484]
  IC50: < 0.1 µM

## C#CCCC1(CCOc2cccc(CN[C@@H]3CCC[C@H](N(CC)C(=O)c4cc5ccccc5[nH]4)C3)c2)N=N1 [Compound 426]
  IC50: < 0.1 µM

## CCN(C(=O)c1cc2ccccc2[nH]1)[C@H]1CCC[C@@H](NCc2nnc(C)o2)C1 [Compound 469]
  IC50: 0.1 to 0.5 µM

## CCN(C(=O)c1cc2ncccc2[nH]1)[C@H]1CCC[C@@H](NCc2ccc3nsnc3c2)C1 [Compound 442]
  IC50: < 0.1 µM

## CCN(C(=O)c1cc2ccccc2[nH]1)[C@H]1CCC[C@@H](Nc2nnc(C)s2)C1 [Compound 500]
  IC50: > 2 µM

## CCN(C(=O)c1cc2ccccc2[nH]1)C1COC[C@@H](N[C@H]2CCc3ccccc32)C1 (stereo partly drawn) [Compound 508]
  IC50: > 2 µM

## CCN(C(=O)c1cc2ccccc2[nH]1)C1CCC[C@@H](NCc2ccc(F)cc2)C1 (stereo partly drawn) [Compound 111]
  IC50: < 0.1 µM

## CCN(C(=O)c1cc2ccccc2[nH]1)[C@H]1CCC[C@@H](NCc2ccccc2)C1 [Compound 100, N-((1S,3R)-3-(benzylamino)cyclohexyl)-N-ethyl-1H-indole-2-carboxamide]
  IC50: < 0.1 µM

## CCN(C(=O)c1cc2ncccc2[nH]1)[C@H]1CCC[C@@H](NC(C)(C)c2ccc(F)cc2)C1 [Compound 410]
  IC50: < 0.1 µM

## CCN(C(=O)c1cc2ccccc2[nH]1)[C@H]1CCC[C@@H](NCc2cc(C(C)C)no2)C1 [Compound 471]
  IC50: < 0.1 µM

## CCN(C(=O)c1nc2cc(C#N)ccc2[nH]1)[C@H]1CCC[C@@H](NCc2cccc(F)c2)C1 [Compound 516, 5-cyano-N-ethyl-N-((1S,3R)-3-((3-fluorobenzyl)amino)cyclohexyl)-1H-benzo[d]imidazole-2-carboxamide]
  IC50: < 0.1 µM

## CCN(C(=O)c1cc2ccccc2[nH]1)[C@H]1CCC[C@@H](N[C@H](c2ccccc2)C(F)(F)F)C1 [Compound 414]
  IC50: 0.5 to 2 µM

## CCN(C(=O)c1nc2ccccc2[nH]1)[C@@]1(C)CCC[C@@H](NCc2ccccc2)C1 [Compound 555, N-((1S,3R)-3-(benzylamino)-1-methylcyclohexyl)-N-ethyl-1H-benzo[d]imidazole-2-carboxamide]
  IC50: > 2 µM

## CCN(C(=O)c1nc2ccccc2[nH]1)[C@H]1CCC[C@@H](NCc2cc(C3CC3)on2)C1 [Compound 515, N-((1S,3R)-3-(((5-cyclopropylisoxazol-3-yl)methyl)amino)cyclohexyl)-N-ethyl-1H-benzo[d]imidazole-2-carboxamide]
  IC50: < 0.1 µM

## CCN(C(=O)c1nc2ccccc2[nH]1)[C@H]1CCC[C@@H](NCc2ccc(F)cc2)C1 [Compound 475]
  IC50: < 0.1 µM

## C#CCOc1ccc(CN[C@@H]2CCC[C@H](N(CC)C(=O)c3nc4cc([N+](=O)[O-])ccc4[nH]3)C2)cc1 [Compound 561, N-ethyl-5-nitro-N-((1S,3R)-3-((4-(prop-2-yn-1-yloxy)benzyl)amino)cyclohexyl)-1H-benzo[d]imidazole-2-carboxamide]
  IC50: < 0.1 µM
